Laboratory results reported in PMC9178789.

How the values were obtained:
[1] = Thioether stapling in folded myoglobin: Cys thiol SN2 on the chloroacetamide of genetically encoded p-chloroacetamido-Phe (pCaaF), loss of HCl; spontaneous during E. coli expression (27 °C overnight) and purification, then overnight incubation at pH ~8.5; conditions: the molecule shown is the open-chain precursor, aqueous (E. coli cytosol, then KPi buffer adjusted to pH ~8.5), other, scale: % stapled
[2] = Thioether stapling in folded myoglobin: Cys thiol SN2 on the bromoethyl ether of genetically encoded O-2-bromoethyl tyrosine (O2beY), loss of HBr; conditions: the molecule shown is the open-chain precursor, aqueous (E. coli expression), other, scale: 1 = efficient/successful stapling, 0.5 = partial, 0 = failed, cited from earlier work

“sperm whale Mb(H64V,V68A) + D20S, G23C, D27A, R118pCaaF” gave a ring closure, conversion by HPLC ([1]; 296-membered ring) of 100.

Substance “sperm whale Mb(H64V,V68A) + D27pCaaF, H113C, V114G” has a ring closure, conversion by HPLC ([1]; 269-membered ring) of 100.

In the case of “sperm whale Mb(H64V,V68A) + G5O2beY, D126C”, the ring closure, product found ([2]; 374-membered ring) is given as 1.

Substance “sperm whale Mb(H64V,V68A) + G5pCaaF, D126C” has a ring closure, conversion by HPLC ([1]; 374-membered ring) of 100.

Substance “sperm whale Mb(H64V,V68A) + G5pCaaF, H36pCaaF, E109C, D126C” has a ring closure, conversion by HPLC [1] of 100.

“sperm whale Mb(H64V,V68A) + G5pCaaF, H36pCaaF, E109C, H113E, D126C” gave a ring closure, conversion by HPLC [1] of 100.

For “sperm whale Mb(H64V,V68A) + H36O2beY, E109C”, the ring closure, product found ([2]; 230-membered ring) is listed as 1.

“sperm whale Mb(H64V,V68A) + H36pCaaF, E109C” gave a ring closure, conversion by HPLC ([1]; 230-membered ring) of 78.

For “sperm whale Mb(H64V,V68A) + K16C, H119A, G121O2beY, D122S”, the ring closure, product found ([2]; 326-membered ring) is given as 0.

Work on “sperm whale Mb(H64V,V68A) + K16C, H119A, G121pCaaF, D122S” yielded a ring closure, conversion by HPLC ([1]; 326-membered ring) of 60.

For “sperm whale Mb(H64V,V68A) + L9R, H12C, D122T, A127O2beY”, the ring closure, product found ([2]; 356-membered ring) is given as 1.

With “sperm whale Mb(H64V,V68A) + L9R, H12C, D122T, A127pCaaF” the ring closure, conversion by HPLC ([1]; 356-membered ring) was 100.

For “sperm whale Mb(H64V,V68A) + R31O2beY, S35K, E109C”, the ring closure, product found ([2]; 245-membered ring) is given as 0.

“sperm whale Mb(H64V,V68A) + R31pCaaF, S35K, E109C” gave a ring closure, conversion by HPLC ([1]; 245-membered ring) of 100.
